The record followed here is patent US20220395467A1, “THERAPEUTIC PROTEIN-BASED NANOPARTICLES AND METHODS FOR MAKING THE SAME” (THE REGENTS OF THE UNIVERSITY OF MICHIGAN, priority 2019, published 2022).

The test system of this experiment is B16F10-OVA melanoma. The experiment can be described thus: Therapeutic efficacy in murine model of B16F10-OVA melanoma. It is filed as in vivo, C57BL/6 mice. The method, then:
FIGS. 9A-9B. FIGS. 9A-9B show therapeutic effect of OVA pNPs. In FIG. 9A, a vaccine doses and regimen for a murine model is shown. […] C57BL/6 mice are inoculated subcutaneously with 1×10^5 B 16F10-OVA cells on day 0. On days 7 and 14, mice are treated with indicated formulations (OVA pNP, soluble OVA, PBS) containing 10 μg/dose OVA and 15 μg/dose CpG (100 μL dose). Data represent mean±SEM (n=10). Groups are compared using Kaplan-Meier estimator analysis. P<0.05 is considered statistically different (*P<0.05). P>0.05 is considered not significant.
Therapeutic efficacy of pNPs in a model of melanoma. Encouraged by the fact that OVA pNPs with 10% PEG/OVA ratio result in increased OT-I CD8+ cell proliferation in vitro, improved uptake by APCs (both in vitro and in vivo), and enhanced humoral immune response in vivo, a murine model of B16F10-OVA melanoma was employed to evaluate the therapeutic efficacy of pNPs with a PEG/OVA ratio of 10% compared to solute OVA. […] Following the regimen shown in FIG. 9A, C57BL/6 mice (10 mice/treatment group) were inoculated with 1×10^5 B16F10-OVA cells in the SC flank on day 0. […] A second treatment was given on day 14. Mice were euthanized after their tumors reached 15 mm in any dimension. […] More than 50% of mice treated with solute OVA were euthanized due to large tumor burden on day 20, and 100% of the mice were euthanized on day 21.

Where [1] appears, read: treated days 7 and 14, 10 μg OVA + 15 μg CpG, n=10.

With “Ovalbumin [soluble OVA, soluble ovalbumin antigen used as control]”, the animal survival entry (solute OVA vs no treatment control, pNPs until endpoint day 24) was “slightly better survival”. Under setting [1], the “mice euthanized due to large tumor burden on day 20” value is on record as “More than 50%” and the “mice euthanized on day 21” value is 100%.
